In patent US20240285780A1 (priority 2020, published 2024):
Values joined by “and” are separate entries in the source; they are usually repeats but may differ in a detail not shown here. Equal values may be shown once. Where a SMILES comes first, the peptide text is derived from it. [ ]: non-standard residue; d: D form. The star is where a group is joined. Trolox = Cc1c(C)c2c(c(C)c1O)CCC(C)(C(=O)*)O2; Cha = N[CH](CC1CCCCC1)C(=O)O

Legend:
[1] = tested on: Elastin; assay type: cell-based, mouse
[2] = tested on: collagen type I alpha 1 (Col1a1); assay type: cell-based, mouse
[3] = tested on: Sprague-Dawley rats; conditions: rat, in vivo
[4] = tested on: Fibronectin; assay type: cell-based, mouse
[5] = tested on: neuroblastoma-derived cell line (SH-SY5Y); assay type: cell-based

In the case of CCC(C)C(NC(=O)C(CC(C)C)NC(=O)C(CC1CCCCC1)NC(=O)C(CCCCN)NC(=O)C1(C)CCc2c(C)c(O)c(C)c(C)c2O1)C(=O)NC(CCCCN)C(=O)O (stereo not drawn) [trolox-peptide conjugate] (Trolox-K[Cha]LIK-OH; configuration not given here), the “expression level of elastin” value [1] is reported as “significantly increased”, the “expression level of collagen (Col1a1)” value [2] is reported as “significantly increased” and the “DAS Score” value [3] is reported as 4 and 2 and 3. The “duration of the muscle relaxation effect” value [3] was “lasted longer”, the “expression level of fibronectin” value [4] was “significantly increased” and the release of acetylcholine [5] was “significantly inhibited”.
